The data set is described as follows: wn = mass fraction of the nth substance listed. Particulars: 100 kPa, Liquid, Pycnometric method.

± gives the expanded uncertainty stated by the source.

In the case of `N.N.O=S(=O)(O)O` [ammonium sulfate] + O, the mass density (commonly mass per unit of volume) was 1238 ± 2 kg/m3 (313.15 K, w1 = 0.446) and 1242 ± 2 kg/m3 (353.15 K, w1 = 0.481).
